Results on 24 molecules are retold here after US11547697B2, “Heterocyclic compounds and uses thereof” (MILLENNIUM PHARMACEUTICALS, INC., priority 2009, dated 2023).

Holding throughout (assay type): biochemical
Test [1] addresses p110α/p85α (Homo sapiens (Human), UniProt P42336). Description: PI 3-Kinase (human) HTRF assay, p110α/p85α. For orientation: In TR-FRET formats the signal depends on donor and acceptor labels being close together.
Test [2] addresses p110γ (Homo sapiens (Human), UniProt P48736). Description: PI 3-Kinase (human) HTRF assay, p110γ.
Method: An exemplary system is PI 3-Kinase (human) HTRF™ Assay from Upstate. […] Briefly, the assay is a time resolved FRET assay that indirectly measures PIP3 product formed by the activity of a PI3-K. The kinase reaction is performed in a microtitre plate (e.g., a 384 well microtitre plate). The total reaction volume is approximately 20 ul per well. In the first step, each well receives 2 ul of test compound in 20% dimethylsulphoxide resulting in a 2% DMSO final concentration. Next, approximately 14.5 ul of a kinase/PIP2 mixture (diluted in 1× reaction buffer) is added per well for a final concentration of 0.25-0.3 ug/ml kinase and 10 μM PIP2. The plate is sealed and incubated for 15 minutes at room temperature. To start the reaction, 3.5 ul of ATP (diluted in 1× reaction buffer) is added per well for a final concentration of 10 μM ATP. The plate is sealed and incubated for 1 hour at room temperature. The reaction is stopped by adding 5 ul of Stop Solution per well and then 5 ul of Detection Mix is added per well. The plate is sealed, incubated for 1 hour at room temperature, and then read on an appropriate plate reader. Data is analyzed and IC50s are generated using GraphPad Prism 5. […] For PI3K α, β, δ, and γ, the nM concentration of inhibitor to reach IC50 is provided.
The target of test [3] is p110β/p85α (Homo sapiens (Human), UniProt P42338). The test can be described thus: PI 3-Kinase (human) HTRF assay, p110β/p85α.
Chain of p110β/p85α (P42338 whole entry): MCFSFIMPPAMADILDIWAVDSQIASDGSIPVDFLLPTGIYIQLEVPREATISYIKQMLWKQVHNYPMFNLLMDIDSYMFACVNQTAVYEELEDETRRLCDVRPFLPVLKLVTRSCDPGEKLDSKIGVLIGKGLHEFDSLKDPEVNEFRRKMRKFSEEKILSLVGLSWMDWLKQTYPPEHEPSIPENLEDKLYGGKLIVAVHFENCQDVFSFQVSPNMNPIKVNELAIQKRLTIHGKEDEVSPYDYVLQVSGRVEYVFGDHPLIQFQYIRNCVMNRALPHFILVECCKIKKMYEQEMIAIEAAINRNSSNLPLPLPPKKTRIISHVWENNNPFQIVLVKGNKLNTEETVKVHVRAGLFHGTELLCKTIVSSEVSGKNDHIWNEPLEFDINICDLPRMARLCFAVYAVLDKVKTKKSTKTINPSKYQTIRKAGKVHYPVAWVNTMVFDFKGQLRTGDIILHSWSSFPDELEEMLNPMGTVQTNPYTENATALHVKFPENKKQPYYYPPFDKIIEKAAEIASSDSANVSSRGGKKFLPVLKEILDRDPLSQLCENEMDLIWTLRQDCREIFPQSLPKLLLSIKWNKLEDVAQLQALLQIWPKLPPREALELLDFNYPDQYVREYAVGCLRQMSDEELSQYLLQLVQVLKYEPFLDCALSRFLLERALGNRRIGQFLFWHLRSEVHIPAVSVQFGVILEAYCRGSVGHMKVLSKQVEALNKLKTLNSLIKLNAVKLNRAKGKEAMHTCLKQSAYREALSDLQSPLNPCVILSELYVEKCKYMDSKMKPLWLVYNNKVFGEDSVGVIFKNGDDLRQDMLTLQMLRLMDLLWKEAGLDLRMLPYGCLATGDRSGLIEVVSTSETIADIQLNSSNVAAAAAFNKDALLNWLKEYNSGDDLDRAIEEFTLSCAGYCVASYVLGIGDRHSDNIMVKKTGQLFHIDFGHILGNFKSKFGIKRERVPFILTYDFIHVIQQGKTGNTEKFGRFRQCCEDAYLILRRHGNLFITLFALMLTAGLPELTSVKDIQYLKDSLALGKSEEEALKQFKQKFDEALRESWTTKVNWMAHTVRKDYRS
Chain of p110β/p85α (P27986 whole entry partner): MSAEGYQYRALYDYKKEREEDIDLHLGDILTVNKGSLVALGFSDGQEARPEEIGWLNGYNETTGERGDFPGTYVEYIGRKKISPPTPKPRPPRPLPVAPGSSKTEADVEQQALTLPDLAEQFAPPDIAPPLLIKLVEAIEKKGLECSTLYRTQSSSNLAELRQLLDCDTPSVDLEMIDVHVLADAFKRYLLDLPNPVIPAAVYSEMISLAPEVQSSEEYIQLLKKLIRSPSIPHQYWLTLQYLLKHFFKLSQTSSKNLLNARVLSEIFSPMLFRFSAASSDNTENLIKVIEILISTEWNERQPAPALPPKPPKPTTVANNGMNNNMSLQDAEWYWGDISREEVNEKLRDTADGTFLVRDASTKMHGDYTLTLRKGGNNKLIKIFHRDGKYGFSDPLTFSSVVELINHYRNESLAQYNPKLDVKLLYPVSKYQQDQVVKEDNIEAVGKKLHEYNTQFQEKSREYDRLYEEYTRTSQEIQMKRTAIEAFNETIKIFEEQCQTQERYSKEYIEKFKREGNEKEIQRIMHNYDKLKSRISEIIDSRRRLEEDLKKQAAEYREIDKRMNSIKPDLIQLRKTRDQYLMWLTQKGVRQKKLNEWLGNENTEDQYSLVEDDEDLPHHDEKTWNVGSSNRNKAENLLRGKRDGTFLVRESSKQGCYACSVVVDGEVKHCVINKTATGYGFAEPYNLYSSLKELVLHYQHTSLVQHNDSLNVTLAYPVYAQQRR
Test [4] concerns the target p110δ/p85α (Homo sapiens (Human), UniProt O00329). The test can be described thus: PI 3-Kinase (human) HTRF assay, p110δ/p85α. The note with it: read-out: PI3K δ In Vitro IC50.
Setting [5] is: in vitro, read-out: PI3K α IC50.
[6] abbreviates: in vitro, read-out: PI3K γ IC50.
The mark [7] stands for this setting: in vitro, read-out: PI3K β IC50.

Where two headings read alike, the source gives them in different places. Some results are limits rather than exact numbers.

Chain of p110α/p85α (P42336 whole entry): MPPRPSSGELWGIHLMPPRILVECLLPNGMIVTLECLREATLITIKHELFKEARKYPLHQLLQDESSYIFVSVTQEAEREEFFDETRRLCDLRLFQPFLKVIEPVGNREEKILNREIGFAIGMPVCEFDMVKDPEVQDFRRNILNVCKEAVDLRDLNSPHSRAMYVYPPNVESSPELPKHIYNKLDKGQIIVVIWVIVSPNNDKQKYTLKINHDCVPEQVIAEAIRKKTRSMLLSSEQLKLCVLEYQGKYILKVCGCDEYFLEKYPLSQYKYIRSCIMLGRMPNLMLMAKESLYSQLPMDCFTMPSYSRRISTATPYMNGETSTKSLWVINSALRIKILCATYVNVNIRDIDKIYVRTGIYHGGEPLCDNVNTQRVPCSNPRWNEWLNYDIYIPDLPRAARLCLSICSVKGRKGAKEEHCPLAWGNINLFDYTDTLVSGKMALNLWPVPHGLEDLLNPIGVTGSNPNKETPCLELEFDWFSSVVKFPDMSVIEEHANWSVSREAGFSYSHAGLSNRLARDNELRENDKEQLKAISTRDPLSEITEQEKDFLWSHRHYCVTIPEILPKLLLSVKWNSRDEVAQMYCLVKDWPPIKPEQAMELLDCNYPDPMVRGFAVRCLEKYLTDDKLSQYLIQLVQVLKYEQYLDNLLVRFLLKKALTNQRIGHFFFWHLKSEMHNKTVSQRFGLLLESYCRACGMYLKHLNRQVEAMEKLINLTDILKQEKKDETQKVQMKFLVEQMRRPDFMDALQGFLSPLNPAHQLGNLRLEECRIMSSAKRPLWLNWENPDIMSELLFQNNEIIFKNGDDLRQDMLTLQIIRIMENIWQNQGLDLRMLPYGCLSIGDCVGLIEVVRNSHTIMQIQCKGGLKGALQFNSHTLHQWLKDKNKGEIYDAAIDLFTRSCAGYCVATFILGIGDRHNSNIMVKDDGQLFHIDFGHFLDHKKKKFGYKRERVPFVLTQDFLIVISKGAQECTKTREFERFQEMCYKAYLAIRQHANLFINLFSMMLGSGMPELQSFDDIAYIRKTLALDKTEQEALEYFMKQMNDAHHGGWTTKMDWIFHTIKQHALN
Chain of p110α/p85α (P27986 whole entry partner): as the sequence (P27986 whole entry partner) above
Chain of p110γ (P48736 whole entry): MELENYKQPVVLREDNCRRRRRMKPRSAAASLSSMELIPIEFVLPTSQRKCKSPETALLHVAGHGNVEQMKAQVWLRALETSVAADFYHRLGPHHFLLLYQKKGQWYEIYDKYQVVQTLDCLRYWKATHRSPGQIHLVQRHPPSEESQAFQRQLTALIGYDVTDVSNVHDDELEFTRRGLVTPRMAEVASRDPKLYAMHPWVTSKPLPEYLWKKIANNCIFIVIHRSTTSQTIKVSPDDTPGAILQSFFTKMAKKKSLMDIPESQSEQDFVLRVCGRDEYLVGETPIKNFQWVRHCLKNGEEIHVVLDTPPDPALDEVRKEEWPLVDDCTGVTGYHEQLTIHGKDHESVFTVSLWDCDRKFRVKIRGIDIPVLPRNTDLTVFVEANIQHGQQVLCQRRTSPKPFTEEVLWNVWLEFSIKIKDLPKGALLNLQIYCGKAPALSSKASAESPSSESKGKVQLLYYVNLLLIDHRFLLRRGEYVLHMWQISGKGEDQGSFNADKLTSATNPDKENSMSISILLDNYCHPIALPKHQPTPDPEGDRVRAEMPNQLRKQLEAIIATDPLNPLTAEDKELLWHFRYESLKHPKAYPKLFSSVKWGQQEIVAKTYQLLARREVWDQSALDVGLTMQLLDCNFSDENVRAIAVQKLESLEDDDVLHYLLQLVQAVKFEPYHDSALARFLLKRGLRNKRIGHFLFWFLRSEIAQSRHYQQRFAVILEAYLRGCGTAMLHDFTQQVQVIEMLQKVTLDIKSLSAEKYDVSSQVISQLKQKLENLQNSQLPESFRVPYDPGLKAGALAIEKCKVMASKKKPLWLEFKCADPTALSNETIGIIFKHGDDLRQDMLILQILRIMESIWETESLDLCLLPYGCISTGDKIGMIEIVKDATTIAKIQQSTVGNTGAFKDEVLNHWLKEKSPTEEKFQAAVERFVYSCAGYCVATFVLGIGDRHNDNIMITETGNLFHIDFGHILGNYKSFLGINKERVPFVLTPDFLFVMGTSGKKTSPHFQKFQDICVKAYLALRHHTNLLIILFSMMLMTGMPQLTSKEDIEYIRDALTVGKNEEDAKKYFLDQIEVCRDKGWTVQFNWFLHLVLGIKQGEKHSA
Chain of p110δ/p85α (O00329 whole entry): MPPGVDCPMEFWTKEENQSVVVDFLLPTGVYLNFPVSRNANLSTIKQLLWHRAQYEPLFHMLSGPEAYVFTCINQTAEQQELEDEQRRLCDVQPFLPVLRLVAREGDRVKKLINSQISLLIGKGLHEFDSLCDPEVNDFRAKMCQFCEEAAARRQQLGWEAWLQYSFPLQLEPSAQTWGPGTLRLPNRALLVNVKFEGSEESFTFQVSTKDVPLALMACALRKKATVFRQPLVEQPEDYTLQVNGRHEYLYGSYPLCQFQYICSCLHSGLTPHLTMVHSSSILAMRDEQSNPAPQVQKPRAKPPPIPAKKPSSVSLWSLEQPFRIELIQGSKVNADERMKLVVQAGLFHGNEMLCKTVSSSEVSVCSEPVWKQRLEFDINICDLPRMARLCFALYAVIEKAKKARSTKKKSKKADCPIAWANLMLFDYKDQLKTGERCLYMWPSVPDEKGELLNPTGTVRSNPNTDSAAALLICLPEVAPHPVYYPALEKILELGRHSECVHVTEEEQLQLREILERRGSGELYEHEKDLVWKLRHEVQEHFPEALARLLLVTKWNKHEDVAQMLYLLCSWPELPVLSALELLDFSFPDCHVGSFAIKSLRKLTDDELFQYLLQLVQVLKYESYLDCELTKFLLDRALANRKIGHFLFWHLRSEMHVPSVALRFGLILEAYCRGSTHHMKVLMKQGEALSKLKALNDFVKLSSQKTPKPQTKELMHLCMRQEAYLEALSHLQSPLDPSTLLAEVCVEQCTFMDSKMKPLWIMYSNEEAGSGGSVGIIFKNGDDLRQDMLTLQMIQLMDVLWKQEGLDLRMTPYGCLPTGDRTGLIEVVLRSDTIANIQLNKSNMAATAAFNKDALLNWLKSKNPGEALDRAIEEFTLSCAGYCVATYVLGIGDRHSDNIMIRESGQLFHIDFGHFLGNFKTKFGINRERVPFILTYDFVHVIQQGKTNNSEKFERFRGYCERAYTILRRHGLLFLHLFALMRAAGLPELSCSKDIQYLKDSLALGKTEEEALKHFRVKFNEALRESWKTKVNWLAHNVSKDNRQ
Chain of p110δ/p85α (P27986 whole entry partner): as the sequence (P27986 whole entry partner) above

Take `Nc1nc2cc(-c3ccn4ncc(C(=O)N5CCCC5)c4c3)ccc2o1` [compound 346]: the IC50 in test [1] (setting [5]) was less than 0.1 µM; in test [2] (setting [6]) it was less than 1 µM; in test [3] (setting [7]) it was less than 10 µM.

Consider `Nc1nc2cc(-c3ccn4ncc(C(=O)N5CCOCC5)c4c3)ccc2o1` [compound 347], for which the IC50 was less than 1 µM in test [1] (setting [5]), less than 1 µM in test [2] (setting [6]) and less than 10 µM in test [3] (setting [7]).

With `Cc1cc(-c2ccc3ncc(C(=O)N4CCOCC4)n3c2)cc2nc(N)oc12` [compound 364], the half-maximal inhibitory concentration (IC50) was less than 1 µM in test [1] (setting [5]), less than 1 µM in test [2] (setting [6]) and less than 10 µM in test [3] (setting [7]).

On to `CN(C)C1CN(c2cnc3ccc(-c4ccc5oc(N)nc5c4)cc3n2)C1` [compound 366], for which the figures for the IC50 in test [1] (setting [5]), in test [2] (setting [6]) and in test [3] (setting [7]) were less than 0.1 µM, less than 10 µM and less than 10 µM, respectively.

In the case of `CN1CCN(C(=O)c2cnn3ccc(-c4ccc5oc(N)nc5c4)cc23)CC1` [compound 380], the IC50 in test [1] (setting [5]) is less than 1 µM; in test [2] (setting [6]), less than 10 µM; in test [3] (setting [7]), less than 10 µM.

On to `COCCN1CCN(c2cnc3ccc(-c4ccc5oc(N)nc5c4)cc3n2)CC1` [compound 387], for which the IC50 in test [1] (setting [5]) was less than 0.1 µM; in test [2] (setting [6]), less than 1 µM; in test [3] (setting [7]) it was less than 1 µM.

For `C[C@H]1CN(c2cnc3ccc(-c4ccc5oc(N)nc5c4)cc3c2)CCN1` [compound 396], the IC50 in test [1] (setting [5]) was less than 0.1 µM; in test [2] (setting [6]), less than 10 µM; in test [3] (setting [7]), less than 0.1 µM.

As to `Nc1nc2cc(-c3ccc4ncc(C(=O)N5CCOCC5)n4c3)cnc2o1` [compound 400], the values for the half-inhibitory concentration (IC50) in test [1] (read-out: PI3K α In Vitro IC50), in test [2] (read-out: PI3K γ In Vitro IC50) and in test [3] (read-out: PI3K β In Vitro IC50) were less than 0.1 µM, less than 10 µM and less than 10 µM, respectively.

Turning to `COc1ncc(-c2ccc3ncc(C(=O)N4CCOCC4)n3c2)cc1NS(=O)(=O)c1ccccc1` [compound 420], the IC50 in test [1] (read-out: PI3K α In Vitro IC50) is less than 0.1 µM; in test [2] (read-out: PI3K γ In Vitro IC50), less than 1 µM; in test [4], less than 1 µM.

On to `O=C(c1cnc2ccc(-c3cncc(NS(=O)(=O)c4ccccc4)c3)cn12)N1CCOCC1` [compound 424], for which the IC50 in test [1] (read-out: PI3K α In Vitro IC50) is less than 1 µM; in test [2] (read-out: PI3K γ In Vitro IC50) it was less than 1 µM; in test [4] it was less than 10 µM.

Consider `O=C(c1cnc2ccc(-c3cncc(NS(=O)(=O)c4ccc(F)cc4F)c3)cn12)N1CCOCC1` [compound 425], for which the IC50 in test [1] (read-out: PI3K α In Vitro IC50) was less than 0.1 µM; in test [2] (read-out: PI3K γ In Vitro IC50), less than 0.1 µM; in test [4], less than 1 µM.

In the case of `Nc1nc2cc(-c3ccc4c(N)n[nH]c4c3)ccc2o1` [compound 428], the IC50 is less than 10 µM in test [1] (read-out: PI3K α In Vitro IC50), less than 1 µM in test [2] (read-out: PI3K γ In Vitro IC50) and less than 10 µM in test [3] (read-out: PI3K β In Vitro IC50).

`CC(=O)Nc1n[nH]c2cc(-c3ccc4oc(N)nc4c3)ccc12` [compound 430]: the IC50 in test [1] (read-out: PI3K α In Vitro IC50), in test [2] (read-out: PI3K γ In Vitro IC50) and in test [3] (read-out: PI3K β In Vitro IC50) was less than 10 µM throughout.

As to `Nc1nc2cc(-c3cc(F)c4oc(N)nc4c3)ccc2o1` [compound 432], the half-maximal inhibitory concentration (IC50) in test [1] (read-out: PI3K α In Vitro IC50) is less than 10 µM; in test [2] (read-out: PI3K γ In Vitro IC50) it was less than 0.1 µM; in test [3] (read-out: PI3K β In Vitro IC50), less than 1 µM.

As for `CC(=O)Nc1nc2cc(-c3cc(F)c4oc(N)nc4c3)ccc2s1` [compound 435], the IC50 in test [1] (read-out: PI3K α In Vitro IC50) was less than 10 µM; in test [2] (read-out: PI3K γ In Vitro IC50), less than 0.1 µM; in test [3] (read-out: PI3K β In Vitro IC50), less than 10 µM.

Consider `Nc1nc2cc(-c3ccc4sc(N)nc4c3)cc(F)c2o1` [compound 437], for which the IC50 is less than 10 µM in test [1] (read-out: PI3K α In Vitro IC50), less than 1 µM in test [2] (read-out: PI3K γ In Vitro IC50) and less than 1 µM in test [3] (read-out: PI3K β In Vitro IC50).

With `Cc1cc(-c2ccc3nc(N)oc3c2)cn2c(C(=O)N3CCOCC3)cnc12` [compound 449], the IC50 in test [1] (read-out: PI3K α In Vitro IC50) is less than 1 µM; in test [2] (read-out: PI3K γ In Vitro IC50) it was less than 0.1 µM; in test [3] (read-out: PI3K β In Vitro IC50) it was less than 1 µM.

Take `O=C(c1cnc2ccc(-c3cccc(NS(=O)(=O)c4ccc(F)cc4F)c3)cn12)N1CCOCC1` [compound 454]: the IC50 in test [1] (read-out: PI3K α In Vitro IC50), in test [2] (read-out: PI3K γ In Vitro IC50) and in test [4] was less than 10 µM in each case.

For `Nc1nc2cc(-c3ccc4ncc(C(=O)N5CC(F)C5)n4c3)ccc2o1` [compound 468], the concentration for half-maximal inhibition (IC50) in test [1] (read-out: PI3K α In Vitro IC50) is less than 0.1 µM; in test [2] (read-out: PI3K γ In Vitro IC50), less than 0.1 µM; in test [3] (read-out: PI3K β In Vitro IC50), less than 10 µM.

With `Nc1nc2cc(-c3ccc4ncc(C(=O)N5CCn6cncc6C5)n4c3)ccc2o1` [compound 493], the IC50 in test [1] (read-out: PI3K α In Vitro IC50) was less than 0.1 µM; in test [2] (read-out: PI3K γ In Vitro IC50), less than 10 µM; in test [3] (read-out: PI3K β In Vitro IC50) it was less than 1 µM.

In the case of `Nc1nc2cc(-c3ccc4ncc(C(=O)N5CC6(C5)OCCO6)n4c3)ccc2o1` [compound 494], the IC50 was less than 0.1 µM in test [1] (read-out: PI3K α In Vitro IC50), less than 1 µM in test [2] (read-out: PI3K γ In Vitro IC50) and less than 10 µM in test [3] (read-out: PI3K β In Vitro IC50).

For the molecule `C[C@@H]1COCCN1C(=O)c1cnc2ccc(-c3ccc4oc(N)nc4c3)cn12` [compound 495], the IC50 in test [1] (read-out: PI3K α In Vitro IC50) is less than 0.1 µM; in test [2] (read-out: PI3K γ In Vitro IC50) it was less than 1 µM; in test [3] (read-out: PI3K β In Vitro IC50), less than 10 µM.

Regarding `Nc1nc2c(-c3ccc4ncc(C(=O)N5CCOCC5)n4c3)cccc2o1` [compound 496], the IC50 in test [1] (read-out: PI3K α In Vitro IC50) was less than 1 µM; in test [2] (read-out: PI3K γ In Vitro IC50), less than 10 µM; in test [3] (read-out: PI3K β In Vitro IC50), less than 10 µM.

On to `Nc1nc2cc(-c3ccc4ncc(C(=O)N5CC6CCC(C5)O6)n4c3)ccc2o1` [compound 504], for which the figures for the IC50 in test [1] (read-out: PI3K α In Vitro IC50), in test [2] (read-out: PI3K γ In Vitro IC50) and in test [3] (read-out: PI3K β In Vitro IC50) were less than 1 µM, less than 0.1 µM and less than 10 µM, respectively.

One may read the IC50 as the concentration that inhibits the measured activity by half.
